Measurements as given in patent EP0651751B1, “FAMILY OF PORPHIN RING SUBSTANCES, METHOD OF OBTAINING THEM FROM CYANOPHYCEAE, AND APPLICATIONS AS COSMETICS AND AS THERAPEUTIC PRODUCTS” (GENERALE DE PREVENTION ET DE LOISIRS, priority 1992, dated 1994).

Assays:
[1] = target: élastase pancréatique (Sus scrofa, UniProt P00772); experiment: Pancreatic elastase inhibition on synthetic substrate N succinyl N ala-ala-ala-p nitroanilide; assay type: biochemical; conditions: 0,5 ml of 0,1 % test solution in DMSO à 50 %, 3 ml total; pH 7,6; OD 410 nm over 3 min
Chain of élastase pancréatique (P00772 27-266): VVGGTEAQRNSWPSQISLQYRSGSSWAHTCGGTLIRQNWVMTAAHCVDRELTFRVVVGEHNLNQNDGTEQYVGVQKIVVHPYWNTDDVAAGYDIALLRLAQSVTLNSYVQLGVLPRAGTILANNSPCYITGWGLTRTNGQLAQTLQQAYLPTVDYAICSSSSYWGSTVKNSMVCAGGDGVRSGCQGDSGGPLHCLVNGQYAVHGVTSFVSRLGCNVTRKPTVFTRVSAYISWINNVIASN
Description: Dans ce test, les substances les plus performantes sont les mêmes que dans le test précédent (chlorophylle-chlorophyllide); de plus, ces substances présentent un effet de renforcement de la résistance du collagène contre les effets de la collagénase, alors que l'enzyme elle-même est peu atteinte par ces substances. * Inhibition de l'élastase pancréatique : - Mise en évidence : L'activité de l'élastase pancréatique est déterminée sur un substrat synthétique. On constate que les produits décrits ci-dessus ont un effet sur cette enzyme alors que le substrat est un dérivé de peptide de faible poids moléculaire : le N succinyl N ala-ala-ala-p nitroanilide. Solution substrat : solution du substrat ci-dessus à 1 % dans du tampon phosphate pH 7,6. Solution enzymatique : élastase pancréatique à (1000 U/ml) dans le tampon pH 7,6. Solvant DMSO à 50 % dans de l'eau distillée. Solution à tester : substance à tester en solution dans le solvant à 0,1 %. Dans un premier tube à essai (blanc), on place : • 2,2 ml de tampon pH 7,6 • 0,3 ml de solution enzymatique • 0,5 ml de solvant. Dans un deuxième tube à essai (essai), on place : • 1 ml de solution substrat • 1,2 ml de tampon pH 7,6 • 0,3 ml de solution enzymatique • 0,5 ml de solution à tester. Dans un troisième tube à essai, on place : • 1 ml de solution substrat • 1,2 ml de tampon pH 7,6 • 0,3 ml de solution enzymatique • 0,5 ml de solvant. On mesure la D.O. de la solution essai contre la solution blanc à 410 nm. On note la valeur toutes les 30 secondes pendant 3 minutes. On réalise la même mesure pour la solution témoin. L'activité de l'enzyme est définie par la vitesse d'augmentation de D.O. du témoin. L'activité de la solution inhibitrice à tester se définit comme une diminution relative de l'activité de l'enzyme. - Résultats : […]

[2] = test system: fibroblastes humains MRC5; experiment: Total protein synthesis by fibroblasts in culture (Coomassie blue, OD 595 nm); assay type: cell-based; conditions: 100 µl per well, MRC5, 28th passage, medium sampled after 48, 72, 96 and 120 h (time not given); for augmentation de la synthèse protéique par rapport au témoin: 50 µg/ml; for activation at 50 µg/mL: Homo sapiens, read-out: augmentation de la synthèse protéique par rapport au témoin
Description: Dans ce test, qui est un test relatif à une inhibition enzymatique vraie, puisque le substrat est artificiel et de structure assez éloignée des substrats naturels de l'enzyme, on constate que les molécules les plus actives en tant qu'inhibiteurs, sont celles dépourvues de radical phytile; la présence du magnésium n'apparaît pas comme essentielle, pour cette fonction particulière, d'où l'intérêt de compositions comprenant plusieurs des substances actives définies ci-dessus. * Effet des substances décrites sur la synthèse des protéines totales par des fibroblastes en culture (restructuration) : - Mise en évidence : Une étude de cytotoxicité est réalisée au préalable pour déterminer les concentrations maximales de test des différentes substances concernées. Cellules utilisées : fibroblastes humains MRC5, au 28ème passage. Les cellules sont ensemencées sur une plaque à 96 puits à raison de 2.10^5 cellules par puits environ et mises en culture dans du milieu minimum de Eagle (MEM) additionné de 1 % de glutamine 200 mM, 1 % de solution de vitamines, 100 U/ml de pénicilline, 100 U/ml de streptomycine et 2 % de sérum de veau foetal. La solution à tester est ajoutée à raison de 100 µl par puits, à la concentration de 50 µg/ml. Les cellules sont incubées à 37°C sous 5 % d'atmosphères de CO2. On prélève le milieu de culture après 48, 72, 96 et 120 heures de culture. Les protéines totales synthétisées sont déterminées après coloration des surnageants par le bleu de Coomassie et mesure de la D.O. à 595 nm. L'augmentation de la synthèse protéique est mesurée par rapport au témoin (solvant de la substance à tester). - Résultats : […]

[3] = test system: collagénase pancréatique; experiment: Collagenase inhibition (agarose gel diffusion, enzyme and substance together in the well); assay type: biochemical; conditions: 15 h at 37°C
Procedure: (§1) On évalue l'action enzymatique en mesurant le diamètre des zones d'hydrolyse du collagène fibreux. Le groupe chlorophylle-chlorophyllide est le plus actif, ce qui suggère que la présence de magnésium dans la structure a une grande importance. * Effet d'inhibition de la collagénase : - Mise en évidence : On répartit dans quatre boîtes de Pétri de 8 cm de diamètre 20 ml d'une solution à 1 % d'agarose dans du tampon Tris pH 8,8, contenant en suspension 20 mg de collagène fibreux insoluble. Cette répartition se fait à 45°C. Après solidification de l'agarose, on perfore 5 puits de 3 mm de diamètre dans le gel grâce à un emporte-pièce. Dans ces 5 puits, on place 25 µl d'une solution de collagénase pancréatique dans du tampon Tris pH 8,8 à des concentrations de : 10 mg/ml (3800 U/ml) et 25 µl d'une solution de la substance à tester dans le même tampon à une concentration de 4 %, 3 %, 2 %, 1 % et 0 %. Comme la plupart des produits à doser ne sont pas solubles dans le tampon, on part d'une solution mère dans du diméthylsulfoxyde. Les boîtes de Pétri sont incubées 15 heures à 37°C, puis le gel est coloré par une solution à 0,25 % d'acide picrique à 0,25 % pendant 3 min, puis une solution de Rouge Sirius à 0,1 % pendant 5 min. L'excès de coloration est éliminé par lavage à l'eau. - Résultats : […]

[4] = test system: collagène fibreux insoluble; experiment: Increase of the resistance of collagen to collagenase (agarose gel, diameter of hydrolysis zones); assay type: biochemical; conditions: product in the gel at 0,025 %; collagénase pancréatique 10 mg/ml (3800 U/ml), 15 h at 37°C, Tris pH 8,8
Procedure: * Accroissement de la résistance du collagène aux effets de la collagénase : - Mise en évidence : On répartit dans quatre boîtes de Pétri de 8 cm de diamètre 20 ml d'une solution à 1 % d'agarose dans du tampon Tris pH 8,8, contenant en suspension 20 mg de collagène fibreux insoluble et 0, 0,1, 0,3 et 0,5 ml d'une solution à 5 % de produit à tester selon les boîtes, soient des concentrations de 0, 0,025 %, 0,075 %, 0,125 %. Comme la plupart des produits à tester ne sont pas solubles dans le tampon, on part d'une solution mère dans du diméthylsulfoxyde (DMSO). Cette répartition se fait à 45°C. Après solidification de l'agarose, on perfore 5 puits de 3 mm de diamètre dans le gel grâce à un emporte-pièce. Dans ces 5 puits, on place 50 µl d'une solution de collagénase pancréatique dans du tampon Tris pH 8,8 à une concentration de 10 mg/ml (3800 U/ml). Les boîtes de Pétri sont incubées 15 heures à 37°C, puis le gel est coloré par une solution à 0,25 % d'acide picrique à 0,25 % pendant 3 min, puis une solution de Rouge Sirius à 0,1 % pendant 5 min. L'excès de coloration est éliminé par lavage à l'eau. - Résultats :
as §1

[5] = Antiradical effect, chemical method (DPPH, OD 519 nm); conditions: 0,15 ml of 2 % solution in methanol; 25°C, 5 min; pH 7; toluene extraction
Procedure: Dans ce test, on constate une relative homogénéité des actions des différentes substances, contrairement aux tests précédents; ici, c'est donc la structure commune qui doit jouer le rôle principal dans cette action. - Mise en évidence par la méthode chimique : Réactif : 1,1-diphényl-2-picrylhydrazyle : 2,5 mg dans 100 ml de méthanol. Solvant des substances antiradicalaires : méthanol. Solution antiradicalaire : 2 % dans du méthanol. Ce produit est un radical libre stable pouvant être dégradé par des substances antiradicalaires. On réalise un blanc pour le témoin et un blanc pour l'essai : Blanc témoin : tampon phosphate pH 7 : 1,5 ml méthanol : 3 ml Témoin : solution réactif : 3 ml tampon phosphate pH 7 : 1,5 ml Blanc essai : tampon phosphate pH 7 : 1,35 ml méthanol : 3,15 ml Essai : solution réactif : 3 ml tampon phosphate pH 7 : 1,35 ml solution d'antiradicalaire : 0,15 ml. On agite à 25°C pendant 5 min. Puis on extrait par 4 ml de toluène pendant 30 secondes. On filtre sur un papier séparateur de phases et on lit la D.O. de la solution de toluène à 519 nm contre la solution de toluène obtenue pour le blanc correspondant. On calcule le pourcentage de réactif disparu. - Résultats : […]

[6] = 25 µl substance solution at 1 % with 25 µl collagénase 10 mg/ml in the well
[7] = 25 µl substance solution at 2 % with 25 µl collagénase 10 mg/ml in the well
[8] = 25 µl substance solution at 3 % with 25 µl collagénase 10 mg/ml in the well
[9] = 25 µl substance solution at 4 % with 25 µl collagénase 10 mg/ml in the well

Compound	Inhibition de l'élastase pancréatique (diminution relative de l'activité de l'enzyme) [1]	augmentation de la synthèse protéique par rapport au témoin [2]	Effet d'inhibition de la collagénase [3, 6]	Effet d'inhibition de la collagénase [3, 7]	Effet d'inhibition de la collagénase [3, 8]	Effet d'inhibition de la collagénase [3, 9]	Accroissement de la résistance du collagène aux effets de la collagénase [4]	pourcentage de réactif disparu (méthode chimique) [5]	activation at 50 µg/mL [2]
didéhydrochlorophylle a	12%	15%	2%	3%	3%	4%	5%	84%	–
C=CC1=C(C)c2cc3[nH]c(c(CCC(=O)OCC=C(C)CCCC(C)CCCC(C)CCCC(C)C)c3C)c3c4nc(cc5[nH]c(cc1n2)c(C)c5CC)C(C)=C4C(=O)C3C(=O)OC (centres unmarked) [Phaéophytine a, didéhydrophaéophytine a]	9%	–	0%	0%	0%	2%	0%	20%	4%
didéhydrochlorophyllide a	28%	23%	3%	6%	8%	9%	3%	83%	–
C=CC1=C(C)c2cc3[nH]c(c(CCC(=O)O)c3C)c3c4nc(cc5[nH]c(cc1n2)c(C)c5CC)C(C)=C4C(=O)C3C(=O)OC (centres unmarked) [Phaéophorbide a, didéhydrophaéophorbide a]	17%	–	2%	2%	2%	6%	2%	33%	1%
